Laboratory results published in patent publication US9974778B2, “Substituted pyridinones as MGAT2 inhibitors” (BRISTOL-MYERS SQUIBB COMPANY, priority 2014, dated 2018).

target: T1, Human MGAT-2 (Homo sapiens, UniProt Q3SYC2); assay: MGAT LCMS Assay; assay type: biochemical; conditions: not given
T1 construct: made in house; host or cells: Sf9 cells (membrane preparation)
Method in brief: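 Robotic enzyme reaction shaken 10 min, quenched with ice-cold methanol containing 1 μg/mL 1,2-distearoyl-rac-glycerol internal standard. Diolein product measured by LC/MS (C8 column, 65° C, APCI(+) triple quad). IC50 derived from diolein/internal standard peak area ratio.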

T1 sequence (Q3SYC2 whole entry): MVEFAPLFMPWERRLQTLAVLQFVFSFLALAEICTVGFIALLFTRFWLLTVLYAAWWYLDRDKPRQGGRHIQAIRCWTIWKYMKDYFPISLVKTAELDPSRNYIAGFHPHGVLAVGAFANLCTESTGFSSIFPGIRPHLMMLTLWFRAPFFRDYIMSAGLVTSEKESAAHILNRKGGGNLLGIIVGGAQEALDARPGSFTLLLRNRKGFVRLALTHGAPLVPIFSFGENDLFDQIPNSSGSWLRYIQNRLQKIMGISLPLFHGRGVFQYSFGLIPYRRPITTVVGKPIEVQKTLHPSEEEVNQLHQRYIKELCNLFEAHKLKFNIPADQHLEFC

| Compound | IC50 [nM] |
| --- | --- |
| CCc1ccc(-c2cc(-c3ccc(OCCCCCC(F)(F)F)cc3C(F)(F)F)[nH]c(=O)c2-c2nn[nH]n2)s1 [Example 151, 4-(5-Ethylthiophen-2-yl)-3-(2H-tetrazol-5-yl)-6-(4-((6,6,6-trifluorohexyl)oxy)-2-(trifluoromethyl)phenyl)pyridin-2(1H)-one] | 0.3 |

same assay, conditions: human MGAT2 membranes expressed in Sf9 cells; 100 μM 2-oleoylglycerol, 15 μM oleoyl-coenzyme A; read-out: h-MGAT LCMS IC50

| Compound | IC50 [nM] |
| --- | --- |
| CCc1ccc(-c2cc(-c3ccc(OCCCC(F)(F)F)cc3F)[nH]c(=O)c2-n2nn[nH]c2=O)s1 [Example 152, 4-(5-Ethylthiophen-2-yl)-6-(2-fluoro-4-(4,4,4-trifluorobutoxy)phenyl)-3-(5-oxo-4,5-dihydro-1H-tetrazol-1-yl)pyridin-2(1H)-one] | 23 |
| Cc1ccc(-c2cc(-c3ccc(OCCCC(F)(F)F)cc3)[nH]c(=O)c2-n2nn[nH]c2=O)cc1 [Example 153, 3-(5-Oxo-4,5-dihydro-1H-tetrazol-1-yl)-4-(p-tolyl)-6-(4-(4,4,4-trifluorobutoxy)phenyl)pyridin-2(1H)-one] | 49 |
| CCc1ccc(-c2cc(-c3ccc(OCCCCCC(F)(F)F)cc3)[nH]c(=O)c2-n2nn[nH]c2=O)s1 [Example 156, 4-(5-Ethylthiophen-2-yl)-3-(5-oxo-4,5-dihydro-1H-1,2,3,4-tetrazol-1-yl)-6-{4-[(6,6,6-trifluorohexyl)oxy]phenyl}-1,2-dihydropyridin-2-one] | 143 |
| CCc1ccc(-c2cc(-c3ccc(C4CCC(C)(C)CC4)cc3)[nH]c(=O)c2-c2nn[nH]n2)s1 [Example 161, 6-[4-(4,4-Dimethylcyclohexyl)phenyl]-4-(5-ethylthiophen-2-yl)-3-(2H-1,2,3,4-tetrazol-5-yl)-1,2-dihydropyridin-2-one] | 76 |
| O=c1[nH]c(-c2ccc(OCCCCCC(F)(F)F)cc2)cc(-c2ccc(OC(F)F)cc2)c1-n1nn[nH]c1=O [Example 162, 4-[4-(Difluoromethoxy)phenyl]-3-(5-oxo-4,5-dihydro-1H-1,2,3,4-tetrazol-1-yl)-6-{4-[(6,6,6-trifluorohexyl)oxy]phenyl}-1,2-dihydropyridin-2-one] | 1970 |
| O=c1cc(-c2ncc(C3CC3)s2)cc(-c2ccc(OCCCCCC(F)(F)F)cc2F)[nH]1 [Example 165, 4-(5-Cyclopropyl-1,3-thiazol-2-yl)-6-{2-fluoro-4-[(6,6,6-trifluorohexyl)oxy]phenyl}-1,2-dihydropyridin-2-one] | 420 |
| CCc1cnc(-c2cc(-c3ccc(OCCCCCC(F)(F)F)cc3F)[nH]c(=O)c2)s1 [Example 166, 4-(5-Ethyl-1,3-thiazol-2-yl)-6-{2-fluoro-4-[(6,6,6-trifluorohexyl)oxy]phenyl}-1,2-dihydropyridin-2-one] | 70 |
| O=c1[nH]c(-c2ccc(OCCCCCC(F)(F)F)cc2F)cc(-c2ccn(CC3CC3)n2)c1-n1nn[nH]c1=O [Example 168, 4-[1-(Cyclopropylmethyl)-1H-pyrazol-3-yl]-6-{2-fluoro-4-[(6,6,6-trifluorohexyl)oxy]phenyl}-3-(5-oxo-4,5-dihydro-1H-1,2,3,4-tetrazol-1-yl)-1,2-dihydropyridin-2-one] | 373 |

Further lines, results first:

| IC50 [nM] | Compound |
| --- | --- |
| 69 | CCc1ccc(-c2cc(-c3ccc(C4=CCC(C(C)(C)C)CC4)cc3)[nH]c(=O)c2-c2nn[nH]n2)s1 (centres unmarked) [Example 163, 6-[4-(4-tert-Butylcyclohex-1-en-1-yl)phenyl]-4-(5-ethylthiophen-2-yl)-3-(2H-1,2,3,4-tetrazol-5-yl)-1,2-dihydropyridin-2-one] |
| 57 | CCCC1CC=C(c2ccc(-c3cc(-c4ccn(CC5CC5)n4)c(-c4nn[nH]n4)c(=O)[nH]3)cc2)CC1 (centres unmarked) [Example 173, 4-[1-(Cyclopropylmethyl)-1H-pyrazol-3-yl]-6-[4-(4-propylcyclohex-1-en-1-yl)phenyl]-3-(2H-1,2,3,4-tetrazol-5-yl)-1,2-dihydropyridin-2-one] |
| 55 | CCCC1CC=C(c2ccc(-c3cc(-c4ccc(CC)s4)c(-c4nn[nH]n4)c(=O)[nH]3)cc2)CC1 (centres unmarked) [Example 164, 4-(5-Ethylthiophen-2-yl)-6-[4-(4-propylcyclohex-1-en-1-yl)phenyl]-3-(2H-1,2,3,4-tetrazol-5-yl)-1,2-dihydropyridin-2-one] |
| 46 | CCc1ccc(-c2cc(-c3ccc(OCCCCCC(F)(F)F)cc3F)[nH]c(=O)c2-n2nn[nH]c2=O)s1 [Example 157, 4-(5-Ethylthiophen-2-yl)-6-{2-fluoro-4-[(6,6,6-trifluorohexyl)oxy]phenyl}-3-(5-oxo-4,5-dihydro-1H-1,2,3,4-tetrazol-1-yl)-1,2-dihydropyridin-2-one] |
| 39 | CCCC1CCC(c2ccc(-c3cc(-c4ccc(CC)s4)c(-c4nn[nH]n4)c(=O)[nH]3)cc2)CC1 (centres unmarked) [Example 167, 4-(5-Ethylthiophen-2-yl)-6-[4-(4-propylcyclohexyl)phenyl]-3-(2H-1,2,3,4-tetrazol-5-yl)-1,2-dihydropyridin-2-one] |
| 38 | Cc1ccc(-c2cc(-c3ccc(OCCCCCC(F)(F)F)cc3F)[nH]c(=O)c2-n2nn[nH]c2=O)cc1 [Example 159, 6-{2-Fluoro-4-[(6,6,6-trifluorohexyl)oxy]phenyl}-4-(4-methylphenyl)-3-(5-oxo-4,5-dihydro-1H-1,2,3,4-tetrazol-1-yl)-1,2-dihydropyridin-2-one] |
| 26 | CC1(C)CCC(c2ccc(-c3cc(-c4ccn(CC5CC5)n4)c(-c4nn[nH]n4)c(=O)[nH]3)cc2)CC1 [Example 172, 4-[1-(Cyclopropylmethyl)-1H-pyrazol-3-yl]-6-[4-(4,4-dimethylcyclohexyl)phenyl]-3-(2H-1,2,3,4-tetrazol-5-yl)-1,2-dihydropyridin-2-one] |
| 17 | CC1(C)CC=C(c2ccc(-c3cc(-c4ccn(CC5CC5)n4)c(-c4nn[nH]n4)c(=O)[nH]3)cc2)CC1 [Example 170, 4-[1-(Cyclopropylmethyl)-1H-pyrazol-3-yl]-6-[4-(4,4-dimethylcyclohex-1-en-1-yl)phenyl]-3-(2H-1,2,3,4-tetrazol-5-yl)-1,2-dihydropyridin-2-one] |
| 12 | O=C(NS(=O)(=O)C1CC1)c1c(-c2ccn(CC3CC3)n2)cc(-c2ccc(OCCCCCC(F)(F)F)cc2C(F)(F)F)[nH]c1=O [Example 160, N-(Cyclopropanesulfonyl)-4-[1-(cyclopropylmethyl)-1H-pyrazol-3-yl]-2-oxo-6-{4-[(6,6,6-trifluorohexyl)oxy]-2-(trifluoromethyl)phenyl}-1,2-dihydropyridine-3-carboxamide] |
| 9 | O=c1[nH]c(-c2ccc(OCCCCCC(F)(F)F)cc2F)cc(-c2nn(CC3CC3)cc2Cl)c1-n1nn[nH]c1=O [Example 169, 4-[4-Chloro-1-(cyclopropylmethyl)-1H-pyrazol-3-yl]-6-{2-fluoro-4-[(6,6,6-trifluorohexyl)oxy]phenyl}-3-(5-oxo-4,5-dihydro-1H-1,2,3,4-tetrazol-1-yl)-1,2-dihydropyridin-2-one] |
| 6 | O=c1[nH]c(-c2ccc(OCCCCCC(F)(F)F)cc2)cc(-c2nn(CC3CC3)cc2Cl)c1-n1nn[nH]c1=O [Example 158, 4-[4-Chloro-1-(cyclopropylmethyl)-1H-pyrazol-3-yl]-3-(5-oxo-4,5-dihydro-1H-1,2,3,4-tetrazol-1-yl)-6-{4-[(6,6,6-trifluorohexyl)oxy]phenyl}-1,2-dihydropyridin-2-one] |
| 6 | CC(C)(C)C1CC=C(c2ccc(-c3cc(-c4ccn(CC5CC5)n4)c(-c4nn[nH]n4)c(=O)[nH]3)cc2)CC1 (centres unmarked) [Example 171, 6-[4-(4-tert-Butylcyclohex-1-en-1-yl)phenyl]-4-[1-(cyclopropylmethyl)-1H-pyrazol-3-yl]-3-(2H-1,2,3,4-tetrazol-5-yl)-1,2-dihydropyridin-2-one] |
| 3 | O=c1[nH]c(-c2ccc(OCCCCCC(F)(F)F)cc2C(F)(F)F)cc(-c2ccn(CC3CC3)n2)c1-c1nn[nH]n1 [Example 155, 4-[1-(Cyclopropylmethyl)-1H-pyrazol-3-yl]-3-(2H-1,2,3,4-tetrazol-5-yl)-6-{4-[(6,6,6-trifluorohexyl)oxy]-2-(trifluoromethyl)phenyl}-1,2-dihydropyridin-2-one] |
| 2 | CCc1ccc(-c2cc(-c3ccc(OCCCCCC(F)(F)F)cc3C(F)(F)F)[nH]c(=O)c2C(=O)NS(=O)(=O)C2CC2)s1 [Example 154, N-(Cyclopropanesulfonyl)-4-(5-ethylthiophen-2-yl)-2-oxo-6-{4-[(6,6,6-trifluorohexyl)oxy]-2-(trifluoromethyl)phenyl}-1,2-dihydropyridine-3-carboxamide] |
